Values of other authors in patent publication US20110129540A1, “Polymer of acrylic or methacrylic type comprising alpha-tocopherol grafts” (Flamel Technologies, priority 2009, published 2011).
Converted amounts (≈) assume the structure as drawn.

Details: no polymer

COc1ccccc1OCCNCC(O)COc1cccc2[nH]c3ccccc3c12 (stereo not shown) [carvedilol]
Solubility in pure water: 50 µg/mL (≈ 123 µM)
